Molecular target: T1, human glucocorticoid receptor (GR) complex (Homo sapiens, UniProt P04150)
T1 construct: made in house; host or cells: insect expression system (baculovirus lysate)
T1 sequence (P04150 1-777): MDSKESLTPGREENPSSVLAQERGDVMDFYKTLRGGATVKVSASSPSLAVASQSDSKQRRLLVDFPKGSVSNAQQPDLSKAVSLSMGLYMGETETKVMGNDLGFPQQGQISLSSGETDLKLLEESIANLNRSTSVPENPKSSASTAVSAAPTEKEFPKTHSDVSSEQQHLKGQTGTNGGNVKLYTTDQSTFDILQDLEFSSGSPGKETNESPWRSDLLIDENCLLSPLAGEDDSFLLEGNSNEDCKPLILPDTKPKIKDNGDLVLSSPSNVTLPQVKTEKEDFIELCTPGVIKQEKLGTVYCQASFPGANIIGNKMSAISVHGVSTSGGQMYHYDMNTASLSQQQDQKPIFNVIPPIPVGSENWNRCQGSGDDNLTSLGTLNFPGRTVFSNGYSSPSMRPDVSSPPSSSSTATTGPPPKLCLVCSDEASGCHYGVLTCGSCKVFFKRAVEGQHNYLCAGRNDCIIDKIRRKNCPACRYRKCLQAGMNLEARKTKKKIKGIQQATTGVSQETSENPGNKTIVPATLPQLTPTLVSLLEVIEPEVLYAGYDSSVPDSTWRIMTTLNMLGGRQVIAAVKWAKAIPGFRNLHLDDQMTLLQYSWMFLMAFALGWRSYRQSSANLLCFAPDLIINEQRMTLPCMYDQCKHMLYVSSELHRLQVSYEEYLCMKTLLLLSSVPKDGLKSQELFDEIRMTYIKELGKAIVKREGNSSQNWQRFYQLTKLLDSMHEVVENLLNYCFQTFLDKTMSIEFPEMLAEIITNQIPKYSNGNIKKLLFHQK
Assay: Glucocorticoid receptor competitive binding assay (fluorescence polarization, TAMRA-labeled dexamethasone probe)
Details: qualitative statement, values not given
Description: Compounds of the invention were evaluated for binding to the steroid receptor by a fluorescence polarization competitive binding assay. Detailed descriptions for preparation of recombinant glucocorticoid receptor (GR) complex used in the assay is described in Goldrick et al., U.S. provisional application No. 60/291,877, filed May 18, 2001 (corresponding to Goldrick et al., U.S. nonprovisional application No. 10/151,133, filed May 20, 2002) both incorporated herein by reference in their entirety. Preparation of the tetramethyl rhodamine (TAMRA)-labeled dexamethasone probe was accomplished using a standard literature procedure (M. Pons et al., J. Steroid Biochem., 1985, 22, pp. 267–273).
A. Glucocorticoid Receptor Competitive Binding Assay
Step 1. Characterization of the Fluorescent Probe
The wavelengths for maximum excitation and emission of the fluorescent probe should first be measured. An example of such a probe is rhodamine (TAMRA)-labeled dexamethasone.
The affinity of the probe for the steroid receptor was then determined in a titration experiment. The fluorescence polarization value of the probe in assay buffer was measured on an SLM-8100 fluorometer using the excitation and emission maximum values described above. Aliquots of expression vector lysate were added and fluorescence polarization was measured after each addition until no further change in polarization value was observed. Non-linear least squares regression analysis was used to calculate the dissociation constant of the probe from the polarization values obtained for lysate binding to the probe.
Step 2. Screening for Inhibitors of Probe Binding
This assay uses fluorescence polarization (FP) to quantitate the ability of test compounds to compete with tetramethyl rhodamine (TAMRA)-labeled dexamethasone for binding to a human glucocorticoid receptor (GR) complex prepared from an insect expression system. The assay buffer was: 10 mM TES, 50 mM KCl, 20 mM Na2MoO4.2H2O, 1.5 mM EDTA, 0.04% w/v CHAPS, 10% v/v glycerol, 1 mM dithiothreitol, pH 7.4. Test compounds were dissolved to 1 mM in neat DMSO and then further diluted to 10× assay concentration in assay buffer supplemented with 10% v/v DMSO. Test compounds were serially diluted at 10× assay concentrations in 10% DMSO-containing buffer in 96-well polypropylene plates. Binding reaction mixtures were prepared in 96-well black Dynex microtiter plates by sequential addition of the following assay components to each well: 15 μL of 10× test compound solution, 85 μL of GR-containing baculovirus lysate diluted 1:170 in assay buffer, and 50 μL of 15 nM TAMRA-labeled dexamethasone. Positive controls were reaction mixtures containing no test compound; negative controls (blanks) were reaction mixtures containing 0.7 μM to 2 μM dexamethasone. The binding reactions were incubated for 1 hour at room temperature and then read for fluorescence polarization in the LJL Analyst set to 550 nm excitation and 580 nm emission, with the Rhodamine 561 dichroic mirror installed. IC50 values were determined by iterative non-linear curve fitting of the FP signal data to a 4-parameter logistic equation.

| SMILES | activity in the GR binding assay |
| --- | --- |
| Cc1cc(C)cc(CC(N)(CC(C)(C)c2cc(F)ccc2O)C(F)(F)F)c1 (stereo not shown) [Compound 6, 2-[3-Amino-3-(3,5-dimethyl-benzyl)-4,4,4-trifluoro-1,1-dimethyl-butyl]-4-fluoro-phenol] | demonstrated activity |
| COc1ccc(F)cc1C(C)(C)CC(N)(Cc1cc(C)cc(C)c1)C(F)(F)F (stereo not shown) [Compound 1, 1-(3,5-Dimethyl-benzyl)-3-(5-fluoro-2-methoxy-phenyl)-3-methyl-1-trifluoromethyl-butylamine] | demonstrated activity |
| COc1ccc(F)cc1C(C)(C)CC(N)(Cc1cc(C(F)(F)F)cc(Cl)c1F)C(F)(F)F (stereo not shown) [Compound 4, 1-(3-Chloro-2-fluoro-5-trifluoromethyl-benzyl)-3-(5-fluoro-2-methoxy-phenyl)-3-methyl-1-trifluoromethyl-butylamine] | demonstrated activity |
| COc1ccc(F)cc1C(C)(C)CC(N)(Cc1cc(Cl)cc(Cl)c1)C(F)(F)F (stereo not shown) [Compound 2, 1-(3,5-Dichloro-benzyl)-3-(5-fluoro-2-methoxy-phenyl)-3-methyl-1-trifluoromethyl-butylamine] | demonstrated activity |
| COc1ccc(F)cc1C(C)(C)CC(N)(Cc1ccc(C#N)cc1Cl)C(F)(F)F (stereo not shown) [Compound 5, 4-[2-Amino-4-(5-fluoro-2-methoxy-phenyl)-4-methyl-2-trifluoromethyl-pentyl]-3-chloro-benzonitrile] | demonstrated activity |

Continued, values first:

| activity in the GR binding assay | SMILES |
| --- | --- |
| demonstrated activity | COc1ccc(F)cc1C(C)(C)CC(N)(Cc1ccc(Cl)c(Cl)c1)C(F)(F)F (stereo not shown) [Compound 3, 1-(3,4-Dichloro-benzyl)-3-(5-fluoro-2-methoxy-phenyl)-3-methyl-1-trifluoromethyl-butylamine] |
| demonstrated activity | CC(C)(CC(N)(Cc1cc(Cl)cc(Cl)c1)C(F)(F)F)c1cc(F)ccc1O (stereo not shown) [Compound 7, 2-[3-Amino-3-(3,5-dichloro-benzyl)-4,4,4-trifluoro-1,1-dimethyl-butyl]-4-fluoro-phenol] |

Reference: patent US7186864B2, “Glucocorticoid mimetics, methods of making them, pharmaceutical compositions, and uses thereof” (Boehringer Ingelheim Pharmaceuticals, Inc., priority 2002, dated 2007)
